Source: PubChem BioAssay AID192 (DTP/NCI, 2004)
Values joined by “and” are separate entries in the source; they are usually repeats but may differ in a detail not shown here. Equal entries are not always repeated. Inconclusive results and toxic doses are left out.

Test system: BDF1 mice, B16 melanoma ip, median survival T/C
Assay: NCI In Vivo Anticancer Drug Screen. Data for tumor model B16 Melanoma (intraperitoneal) in B6D2F1 (BDF1) mice
Settings: endpoint: median survival time, higher = longer survival
In short: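 Antitumor activity is assessed in mice bearing a transplanted tumor, with survival or tumor size compared against vehicle-dosed controls and expressed as T/C.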

[1] = dose: 25.0 mg/kg/injection, schedule: Q01DX009 (ip), vehicle: saline with Tween-80
[2] = dose: 50.0 mg/kg/injection, schedule: Q01DX009 (ip), vehicle: saline with Tween-80
[3] = dose: 100.0 mg/kg/injection, schedule: Q01DX009 (ip), vehicle: saline with Tween-80
[4] = dose: 200.0 mg/kg/injection, schedule: Q01DX009 (ip), vehicle: saline with Tween-80
[5] = dose: 400.0 mg/kg/injection, schedule: Q01DX009 (ip), vehicle: saline with Tween-80
[6] = dose: 6.25 mg/kg/injection, schedule: Q01DX009 (ip), vehicle: saline with Tween-80
[7] = dose: 12.5 mg/kg/injection, schedule: Q01DX009 (ip), vehicle: Klucel (hydroxypropylcellulose) (HPC)
[8] = dose: 12.5 mg/kg/injection, schedule: Q01DX009 (ip), vehicle: saline with Tween-80
[9] = dose: 25.0 mg/kg/injection, schedule: Q01DX009 (ip), vehicle: Klucel (hydroxypropylcellulose) (HPC)
[10] = dose: 50.0 mg/kg/injection, schedule: Q01DX009 (ip), vehicle: Klucel (hydroxypropylcellulose) (HPC)
[11] = dose: 1.0 mg/kg/injection, schedule: Q01DX009 (ip), vehicle: saline
[12] = dose: 100.0 mg/kg/injection, schedule: Q01DX009 (ip), vehicle: Klucel (hydroxypropylcellulose) (HPC)
[13] = dose: 200.0 mg/kg/injection, schedule: Q01DX009 (ip), vehicle: Klucel (hydroxypropylcellulose) (HPC)
[14] = dose: 400.0 mg/kg/injection, schedule: Q01DX009 (ip), vehicle: Klucel (hydroxypropylcellulose) (HPC)
[15] = dose: 6.25 mg/kg/injection, schedule: Q01DX009 (ip), vehicle: saline
[16] = dose: 12.5 mg/kg/injection, schedule: Q01DX009 (ip), vehicle: saline
[17] = dose: 25.0 mg/kg/injection, schedule: Q01DX009 (ip), vehicle: saline
[18] = dose: 50.0 mg/kg/injection, schedule: Q01DX009 (ip), vehicle: saline
[19] = dose: 100.0 mg/kg/injection, schedule: Q01DX009 (ip), vehicle: saline
[20] = dose: 1.5 mg/kg/injection, schedule: Q01DX009 (ip), vehicle: saline with Tween-80
[21] = dose: 3.0 mg/kg/injection, schedule: Q01DX009 (ip), vehicle: saline with Tween-80
[22] = dose: 6.0 mg/kg/injection, schedule: Q01DX009 (ip), vehicle: saline with Tween-80

COc1cc2cc(c1Cl)N(C)C(=O)/C=C/C1(C)OC1C(C)C1CC(O)(NC(=O)O1)C(OC)C=C/C=C(\C)C2 (centres undefined)
T/C (dose: 1.3 micrograms/kg/injection, schedule: Q01DX009 (ip), vehicle: saline + alcohol): 100 % of control
T/C (dose: 2.5 micrograms/kg/injection, schedule: Q01DX009 (ip), vehicle: saline + alcohol): 97 % of control
T/C (dose: 5.0 micrograms/kg/injection, schedule: Q01DX009 (ip), vehicle: saline + alcohol): 97 % of control
T/C (dose: 10.0 micrograms/kg/injection, schedule: Q01DX009 (ip), vehicle: saline + alcohol): 92 % of control

O=C(CC(O)(C(F)(F)Cl)C(F)(F)Cl)c1ccco1
T/C [1]: 100 % of control
T/C [2]: 100 % of control
T/C [3]: 105 % of control

CCOC(CCC#N)c1ccc(Cl)cc1 (centres undefined)
T/C [3]: 98 % of control
T/C [4]: 96 % of control
T/C [5]: 97 % of control

COc1cc(C=Nc2cccc(Br)c2)ccc1N(CCCl)CCCl
T/C (dose: 0.8 mg/kg/injection, schedule: Q01DX009 (ip), vehicle: saline with Tween-80): 113 % of control
T/C (dose: 1.56 mg/kg/injection, schedule: Q01DX009 (ip), vehicle: Klucel (hydroxypropylcellulose) (HPC)): 113 % of control
T/C (dose: 3.12 mg/kg/injection, schedule: Q01DX009 (ip), vehicle: Klucel (hydroxypropylcellulose) (HPC)): 115 % of control
T/C [6]: 164 % of control
T/C [7]: 163 % of control
T/C [8]: 158 % of control

O=CCC(O)C(O)C(O)CO (centres undefined)
T/C (dose: 300.0 mg/kg/injection, schedule: Q01DX009 (ip), vehicle: suspension in saline): 104 % of control
T/C (dose: 600.0 mg/kg/injection, schedule: Q01DX009 (ip), vehicle: suspension in saline): 100 % of control
T/C (dose: 1200.0 mg/kg/injection, schedule: Q01DX009 (ip), vehicle: suspension in saline): 100 % of control
T/C (dose: 1800.0 mg/kg/injection, schedule: Q01DX009 (ip), vehicle: suspension in saline): 101 % of control

CCCCCCCCCCCC(=O)Nc1ccccc1
T/C [7]: 105 % of control
T/C [9]: 90 % of control
T/C [10]: 92 % of control

NC(Cc1cc(I)c(Oc2cc(I)c(O)c(I)c2)c(I)c1)C(=O)O (centres undefined)
T/C [11]: 93 % of control
T/C (dose: 2.0 mg/kg/injection, schedule: Q01DX009 (ip), vehicle: saline): 101 % of control
T/C (dose: 4.0 mg/kg/injection, schedule: Q01DX009 (ip), vehicle: saline): 92 % of control
T/C (dose: 16.0 mg/kg/injection, schedule: Q01DX009 (ip), vehicle: saline): 101 % of control

O=C1C(=O)c2ccccc2C(O)=C1CCCc1ccc(OCc2ccccc2)cc1
T/C (dose: 5.0 mg/kg/injection, schedule: Q01DX009 (ip), vehicle: saline with Tween-80): 101 % of control
T/C (dose: 10.0 mg/kg/injection, schedule: Q01DX009 (ip), vehicle: saline with Tween-80): 100 % of control
T/C (dose: 20.0 mg/kg/injection, schedule: Q01DX009 (ip), vehicle: saline with Tween-80): 103 % of control

CCCCCCn1c(O)c(C=N)c(=O)[nH]c1=O
T/C [12]: 95 % of control
T/C [13]: 96 % of control
T/C [14]: 112 % of control

CCN(C(=O)Nc1cccc(Cl)c1)c1ccccc1
T/C [3]: 102 % of control
T/C [4]: 100 % of control
T/C [5]: 110 % of control

CC(C)(N)Cc1ccc(Cl)cc1
T/C [15]: 110 % of control
T/C [16]: 90 % of control
T/C [17]: 97 % of control
T/C [18]: 100 % of control
T/C [19]: 100 % of control

CSc1sc2ccccc2[n+]1C
T/C [17]: 100 % of control
T/C [18]: 98 % of control
T/C [19]: 91 % of control

COc1ccc2nc3cc(Cl)ccc3c(NCCO)c2c1
T/C (dose: 37.5 mg/kg/injection, schedule: Q01DX009 (ip), vehicle: saline with Tween-80): 104 % of control
T/C (dose: 75.0 mg/kg/injection, schedule: Q01DX009 (ip), vehicle: saline with Tween-80): 106 % of control

Cc1ccc(C(=O)CCC(=O)O)c(C)c1
T/C [3]: 90 % of control
T/C [4]: 93 % of control

CCOC(=O)C1C(=O)CC(=O)C(C(=O)OCC)C1c1ccc(O)cc1 (centres undefined)
T/C [12]: 100 % of control
T/C [13]: 93 % of control
T/C [14]: 103 % of control

CC(C)c1ccc(C2CCCCC2O)cc1 (centres undefined)
T/C [2]: 94 % of control
T/C [3]: 88 % of control

CCCCCCCCCCCCCCC/C([O-])=N/[N+](C)(C)CC(C)O (centres undefined)
T/C (dose: 25.0 mg/kg/injection, schedule: Q01DX001 (ip), vehicle: saline): 97 % of control
T/C (dose: 50.0 mg/kg/injection, schedule: Q01DX001 (ip), vehicle: saline): 96 % of control
T/C (dose: 100.0 mg/kg/injection, schedule: Q01DX001 (ip), vehicle: saline): 95 % of control
T/C (dose: 200.0 mg/kg/injection, schedule: Q01DX001 (ip), vehicle: saline): 95 % of control

CCCCCCCCCC(O)CCC (centres undefined)
T/C [9]: 103 % of control
T/C [10]: 99 % of control
T/C [12]: 92 % of control

C=C(C)C(=O)O[C@H]1CC2=C[C@@H](C[C@@]3(C)O[C@@H]3[C@H]3OC(=O)C(=C)[C@@H]31)OC2=O
T/C (dose: 3.75 mg/kg/injection, schedule: Q01DX009 (ip), vehicle: Klucel (hydroxypropylcellulose) (HPC)): 89 % of control
T/C (dose: 7.5 mg/kg/injection, schedule: Q01DX009 (ip), vehicle: Klucel (hydroxypropylcellulose) (HPC)): 97 % of control
T/C (dose: 15.0 mg/kg/injection, schedule: Q01DX009 (ip), vehicle: Klucel (hydroxypropylcellulose) (HPC)): 92 % of control

COc1cccc2c1C(=O)c1c(O)c3c(c(O)c1C2=O)C[C@@](O)(C(=O)CN1CCN(C)CC1)C[C@@H]3OC1CC(N)C(O)C(C)O1 (some centres undefined)
T/C (dose: 1.56 mg/kg/injection, schedule: Q01DX009 (ip), vehicle: water): 110 % of control
T/C (dose: 3.13 mg/kg/injection, schedule: Q01DX009 (ip), vehicle: water): 113 % of control

NC(N)=Nc1cc2ccccc2c2ccccc12
T/C (dose: 5.0 mg/kg/injection, schedule: Q01DX009 (ip), vehicle: saline): 93 % of control
T/C (dose: 10.0 mg/kg/injection, schedule: Q01DX009 (ip), vehicle: saline): 111 % of control
T/C (dose: 20.0 mg/kg/injection, schedule: Q01DX009 (ip), vehicle: saline): 120 % of control

Clc1ccc2nc(CBr)cnc2c1
T/C (dose: 0.75 mg/kg/injection, schedule: Q01DX009 (ip), vehicle: saline with Tween-80): 97 % of control
T/C [20]: 86 % of control
T/C [21]: 97 % of control
T/C [22]: 88 % of control
T/C [6]: 87 % of control

COc1ccc2nc3cc(Cl)ccc3c(Nc3ccc(O)c(CN(CCCl)CCCl)c3)c2c1
T/C (dose: 0.25 mg/kg/injection, schedule: Q01DX009 (ip), vehicle: saline): 104 % of control
T/C (dose: 0.5 mg/kg/injection, schedule: Q01DX009 (ip), vehicle: saline): 121 % of control
T/C [11]: 120 % of control

CC(=O)Nc1ccc(N=Nc2c(O)c(S(=O)(=O)O)cc3cc(S(=O)(=O)O)ccc23)cc1
T/C [4]: 100 % of control

CCc1cc2c(cc1C(=O)CBr)C(C)(C)CCC2(C)C
T/C (dose: 3.13 mg/kg/injection, schedule: Q01DX009 (ip), vehicle: saline with Tween-80): 100 % of control
T/C [6]: 94 % of control
T/C [8]: 92 % of control and 99 % of control
T/C [1]: 94 % of control

CCCCN(CCCC)C(=O)c1[nH]cnc1/N=N\N(C)C
T/C (dose: 12.5 mg/kg/injection, schedule: Q04DX003 (ip), vehicle: saline with Tween-80): 110 % of control
T/C (dose: 25.0 mg/kg/injection, schedule: Q04DX003 (ip), vehicle: saline with Tween-80): 92 % of control
T/C (dose: 50.0 mg/kg/injection, schedule: Q04DX003 (ip), vehicle: saline with Tween-80): 117 % of control
T/C (dose: 100.0 mg/kg/injection, schedule: Q04DX003 (ip), vehicle: saline with Tween-80): 93 % of control

CC(N)Cc1ccccc1 (centres undefined)
T/C (dose: 3.12 mg/kg/injection, schedule: Q01DX009 (ip), vehicle: saline): 105 % of control
T/C [15]: 100 % of control
T/C [16]: 105 % of control
T/C [17]: 97 % of control
T/C [18]: 97 % of control
T/C [19]: 95 % of control

CCCCCCCCOC(=O)Nc1ccc(OCC)cc1
T/C [20]: 107 % of control
T/C [21]: 96 % of control
T/C [22]: 96 % of control
